Assay results reported in patent publication US20240245793A1, “PSD-95 INHIBITORS AND USES THEREOF” (priority 2021, published 2024).
Like-named read-outs stand apart in the source and are kept apart here.

Test system: HeLa cells stably expressing HaloGFP
Experiment: Chloroalkane penetration assay (CAPA), membrane permeability and cellular uptake
Format: cell-based
Excerpt: Since PSD-95 is located intracellularly, it is essential for any drug targeting PSD-95 to efficiently cross the cell membrane. To assess the cellular permeability and delivery to the cytosol of the compounds as defined herein, the cellular chloroalkane penetration assay (CAPA) may be used (Peraro et al. 2018). This assay takes advantage of a modified haloalkane dehalogenase designed to covalently bind chloroalkane (CA) molecules. A HeLa cell line expressing a fusion protein comprising a HaloTag, a green fluorescent protein (GFP) and a mitochondria-targeting peptide is used to report cytosolic delivery. The general format of the CAPA is a pulse-chase assay (Deprey & Kritzer, 2020). Cells expressing the HaloTag enzyme are incubated with CA-tagged peptides. When these CA-peptides penetrate the cell membrane and reach the cytosol, they will bind to and react with the HaloTag (pulse step). Following a washing step, the cells are incubated with a CA-tagged dye that quantitatively penetrates the cell membrane and reacts with remaining unreacted HaloTag sites (chase step). Flow cytometry is used to measure the fluorescence intensity of the cells and the measured fluorescence is inversely proportional to the amount of CA-peptides that reach the penetrated the cells and can thus be used to assess cytosolic delivery. The obtained data is commonly expressed as CP50 values, the concentration at which 50% cell penetration is observed. The CP50 value of a compound may be measured as described in example 4.
The membrane permeability of compounds 10 to 75 was determined in HeLa cells stably expressing HaloGFP exclusively located in the cytosol. Cells were seeded at a density of 40.000 cells/well one day prior to the experiment. After the growth media was aspirated and replaced by 100 μL of Opti-MEM, 25 μL of a prepared serial dilution of the ligand in Opti-MEM was added to the cells (constant DMSO concentration), and the plate was incubated for 4 h at 37° C. and 5% CO2. The contents of the wells were aspirated, and cells were washed with fresh Opti-MEM for 15 min. After aspiration of the wash, the cells were incubated with TAMRA-CA (5 μM) for 15 min. After aspiration of the chase solution, cells were washed with Opti-MEM for 30 min. Following removal of the wash, cells were trypsinized, resuspended in PBS (2% FBS), and analyzed using a benchtop flow cytometer. Using no ligand and no TAMRA-CA control well, the obtained fluorescence intensity data was normalized and plotted as dose-response curves. Reported CP50 values represent half-maximum red fluorescence which behaves inverse to cell penetration of the ligand.

SMILES | CP50 [µM] | CP50 (CA-tagged NPEG4-(IETDV)2 with various CPP-tags, 4 h at 37° C., mean ± SEM (Table 11, FIG. 8)) [µM]
CC(C)[C@H](NC(=O)[C@H](CCCNC(=N)N)NC(=O)[C@@H](NC(=O)[C@H](CCC(=O)O)NC(=O)[C@H](CCCCN)NC(=O)CCOCCOCCN(CCOCCOCCC(=O)N[C@@H](CCCCN)C(=O)N[C@@H](CCC(=O)O)C(=O)N[C@H](C(=O)N[C@@H](CCCNC(=N)N)C(=O)N[C@H](C(=O)O)C(C)C)[C@@H](C)O)C(=O)[C@H](CCCNC(=N)N)NC(=O)[C@H](CCCNC(=N)N)NC(=O)[C@H](CCCNC(=N)N)NC(=O)[C@H](CCCNC(=N)N)NC(=O)[C@H](CCCNC(=N)N)NC(=O)[C@H](CCCNC(=N)N)NC(=O)[C@H](CCCNC(=N)N)NC(=O)[C@H](CCCNC(=N)N)NC(=O)[C@H](CCCNC(=N)N)NC(=O)CCC(=O)NCCOCCOCCCCCCCl)[C@@H](C)O)C(=O)O [Compound 30] | 0.68 ± 0.05 | –
CC[C@H](C)[C@H](NC(=O)CCOCCOCCN(CCOCCOCCC(=O)N[C@H](C(=O)N[C@@H](CO)C(=O)N[C@H](C(=O)N[C@@H](CC(=O)O)C(=O)N[C@H](C(=O)O)C(C)C)[C@@H](C)O)[C@@H](C)CC)C(=O)[C@H](CCCNC(=N)N)NC(=O)[C@H](CCCNC(=N)N)NC(=O)[C@H](CCCNC(=N)N)NC(=O)[C@H](CCCNC(=N)N)NC(=O)[C@H](CCCNC(=N)N)NC(=O)[C@H](CCCNC(=N)N)NC(=O)[C@H](CCCNC(=N)N)NC(=O)[C@H](CCCNC(=N)N)NC(=O)[C@H](CCCNC(=N)N)NC(=O)CCC(=O)NCCOCCOCCCCCCCl)C(=O)N[C@@H](CO)C(=O)N[C@H](C(=O)N[C@@H](CC(=O)O)C(=O)N[C@H](C(=O)O)C(C)C)[C@@H](C)O [Compound 32] | 1.05 ± 0.15 | –
CC(C)[C@H](NC(=O)[C@@H](NC(=O)[C@@H](NC(=O)[C@H](CCC(=O)O)NC(=O)[C@@H](NC(=O)CCOCCOCCN(CCOCCOCCC(=O)N[C@H](C(=O)N[C@@H](CCC(=O)O)C(=O)N[C@H](C(=O)N[C@H](C(=O)N[C@H](C(=O)O)C(C)C)C(C)C)[C@@H](C)O)C(C)C)C(=O)[C@H](CCCNC(=N)N)NC(=O)[C@H](CCCNC(=N)N)NC(=O)[C@H](CCCNC(=N)N)NC(=O)[C@H](CCCNC(=N)N)NC(=O)[C@H](CCCNC(=N)N)NC(=O)[C@H](CCCNC(=N)N)NC(=O)[C@H](CCCNC(=N)N)NC(=O)[C@H](CCCNC(=N)N)NC(=O)[C@H](CCCNC(=N)N)NC(=O)CCC(=O)NCCOCCOCCCCCCCl)C(C)C)[C@@H](C)O)C(C)C)C(=O)O [Compound 34] | 0.84 ± 0.15 | –
CC[C@H](C)[C@H](NC(=O)CCOCCOCCN(CCOCCOCCC(=O)N[C@H](C(=O)N[C@@H](CCC(=O)O)C(=O)N[C@H](C(=O)N[C@@H](CC(=O)O)C(=O)N[C@H](C(=O)O)C(C)C)[C@@H](C)O)[C@@H](C)CC)C(=O)[C@@H](CCCNC(=N)N)NC(=O)[C@@H](CCCNC(=N)N)NC(=O)[C@@H](CCCNC(=N)N)NC(=O)[C@@H](CCC(N)=O)NC(=O)[C@@H](CCCNC(=N)N)NC(=O)[C@@H](CCCNC(=N)N)NC(=O)[C@@H](CCCCN)NC(=O)[C@@H](CCCCN)NC(=O)[C@@H](CCCNC(=N)N)NC(=O)CNC(=O)[C@@H](Cc1ccc(O)cc1)NC(=O)CCC(=O)NCCOCCOCCCCCCCl)C(=O)N[C@@H](CCC(=O)O)C(=O)N[C@H](C(=O)N[C@@H](CC(=O)O)C(=O)N[C@H](C(=O)O)C(C)C)[C@@H](C)O [Compound 39] | – | 10.7 ± 0.7
CC[C@H](C)[C@H](NC(=O)CCOCCOCCN(CCOCCOCCC(=O)N[C@H](C(=O)N[C@@H](CCC(=O)O)C(=O)N[C@H](C(=O)N[C@@H](CC(=O)O)C(=O)N[C@H](C(=O)O)C(C)C)[C@@H](C)O)[C@@H](C)CC)C(=O)[C@@H](CCCNC(=N)N)NC(=O)[C@H](CCCNC(=N)N)NC(=O)[C@@H](CCCCN)NC(=O)[C@H](CCCCN)NC(=O)[C@@H](CCCNC(=N)N)NC(=O)CNC(=O)[C@@H](CCCNC(=N)N)NC(=O)[C@H](CCCNC(=N)N)NC(=O)[C@@H](CCCNC(=N)N)NC(=O)CCC(=O)NCCOCCOCCCCCCCl)C(=O)N[C@@H](CCC(=O)O)C(=O)N[C@H](C(=O)N[C@@H](CC(=O)O)C(=O)N[C@H](C(=O)O)C(C)C)[C@@H](C)O [Compound 41] | 180 ± 8.2 | –
